The subject of experiment [1] is EAE. The conditions noted are these: in vivo; cited from earlier work.
Experiment [2] deals with MMP-9. The experiment can be described thus: MMP enzyme activity in gelatin zymography, test agent in wash and reaction buffer. The experiment is classed as biochemical, Baby Hamster Kidney (BHK) cells and human T lymphocytes. The settings on record: agent in incubation buffers during zymogram development; MMP-9 from BHK cells or T lymphocytes. From the text: The analysis of cell conditioned medium in zymography is a reflection of the amount of MMPs that was produced by the particular culture. […] An inhibitor of MMP activity prevents gelatin degradation by gelatinases and the resultant size of the band of gelatinases would be smaller as compared to that obtained in the absence of inhibitors.

Experiment [3] deals with MHC class II molecules. The conditions noted are these: irrespective of MHC restriction, dose-dependent; cited from earlier work.
For experiment [4], the system named is lymphocytes from relapsing-remitting multiple sclerosis patients. The settings on record: patients on Copolymer 1 compared to untreated multiple sclerosis patients; cited from earlier work.
In experiment [5] the test system is T lymphocytes. The conditions noted are these: for total number of cells after 72 h: control 24±2. As for the experimental part:
(§1) Heparinized blood was collected from normal volunteers, and subjected to Ficoll-Hypaque (Pharmacia Biotech, Mississauga, Ontario) centrifugation to obtain peripheral blood mononuclear cells (PEMNCs) as described previously (15). After two washes, cells were suspended at a density of 1–2 million/ml in horizontal T-25 flasks (Nunc, Becton Dickinson, Mississauga, Ontario) in the serum free medium, AIM-V (GIBCO/BRL), to which 1 ng/ml of an anti-CD3 antibody (OKT3, compliments of Jack Antel, Montreal, Canada) was added. Three hours after the anti-CD3 addition, the T-25 flasks were stood upright from their horizontal position in order to […] monocytes that had adhered. Floating cells, which were mostly lymphocytes, were left for a period of 72 hours at 37° C. […] Henceforth, given that the majority of cells in the MNC population are T lymphocytes, these will be referred to as T lymphocytes.
(§2) Cells were left for 69 h at 37° C., then collected, counted and resuspended in fresh AIM-V at density of 500,000 cells per ml. […] Thereafter, 500 μl (250,000 cells) of the suspension was taken for migration assays described below. Alternatively, 100 μl (50,000 cells) of cell suspension was added to each individual well of a 96-well plate already containing microglia or U937 monocytoid cells (see below).

Experiment [6] deals with T lymphocyte - adult human microglia co-culture. The conditions noted are these: added at the time of co-culture instead of pretreatment. As for the experimental part: as §2
Adult human microglia were isolated from the resected brain tissue of patients undergoing surgical resection to treat intractable epilepsy. […] Cells were used for interactions with T lymphocytes in a manner identical to that described for their fetal counter parts.
(§3) Cytokine protein levels in the conditioned medium of microglia-T lymphocyte co-cultures were measured using enzyme-linked immunoabsorbent assay (ELISA) kits bought from BioSource International (Montreal, Canada).

Experiment [7] relates to experimental GVHD. The conditions noted are these: higher doses and/or more frequent administration; mice; cited from earlier work.
The subject of experiment [8] is CXCR3 and CXCR4 on U937 cells. The conditions noted are these: 25 μg/ml, 1 or 3 days. From the text: Chemokine and chemokine receptor expression are currently recognized to be important mechanisms that regulate the influx of leukocytes into the CNS. Notable is the up-regulation of the chemokine IP-10 and its receptor CXCR3 in the lesions of multiple sclerosis patients (74).

The test system of experiment [9] is T lymphocyte - U937 co-culture. The settings on record: pretreatment of the PMA/IFNγ-treated U937 cells instead of T lymphocytes. On the procedure:
as §2
A human promonocytoid cell line, U937, was also employed. Members of this cell line become microglia-like, as assessed by morphology and expression of cell surface molecules, when treated sequentially with 50 ng/ml of a protein kinase C activator, phorbol-12-myristate-13-acetate (PMA) (time 0–48) and 100 U/ml interferon-γ (IFNγ) (from 48–72 h).
Cells were used 1–3 days after the IFNγ treatment. As with microglia, 50,000 T lymphocytes in AIM-V was added to individual wells of a 96-well plate already containing 25,000 PMA/IFNγ-treated U937 cells, and conditioned medium was collected after 24 h of co-cultures.
as §3

Experiment [10] has as its system MMP-9 production by T lymphocytes. The experiment can be described thus: MMP-9 production by anti-CD3 activated T lymphocytes (zymography of conditioned medium). The experiment is classed as cell-based, human. The conditions noted are these: 25 μg/ml, for 1, 2 or 3 d. As for the experimental part: as §1, §2
Experiment [11] concerns T-cell responses to MBP. The conditions noted are these: dose-dependent; cited from earlier work.
In experiment [12] the test system is MMP-9 production by monocytes. The settings on record: after 1 day of treatment.
Protocol: To produce monocyte-enriched cultures, 2×10^5 PBMC were suspended in 100 μl of AIM-V medium and placed into each well of a 96-well plate. One hour after, floating cells were removed to leave behind adherent monocytes. Fresh 100 μl of AIM-V was added per well and cultures were kept at 37° C.
Supernatant was collected, mixed in a 3.1 ratio (v/v) with 4× gel-loading SDS buffer, and used in zymographic assays. Similarly, for monocytes in wells of 96-well plates, conditioned medium was collected, microfuged, and mixed with 4× gel-loading SDS buffer.
Zymography is essentially SDS-PAGE except that gelatin is also added to the gel (77, 82). After proteins were resolved based on molecular weight in SDS-PAGE, the gel was washed in a Triton X-100 buffer in order to remove SDS which thus allows protein renaturation. In a calcium-containing “reaction buffer” (77), gelatinases (MMP-2 and -9) degraded gelatin in their immediate vicinity (other members of MMPs would also be detected if present in high amounts). Following staining in Coommasie blue, which binds all proteins, and destaining , areas containing gelatinases appeared as clear bands against a dark background, since the gelatin in its immediate vicinity has been degraded. The size of the MMP bands was a reflection of the amount of MMP that was produced by cells, and this was documented by NIH image analysis software.
Experiment [13] relates to T lymphocytes. The experiment can be described thus: Migration assay across fibronectin-coated Boyden chamber. The experiment is classed as cell-based, human. As for the experimental part:
as §2
To address the migration capacity of T lymphocytes, 2×10^5 T lymphocytes in 500 μl of 2.5% fetal calf serum (FCS) containing AIM-V were seeded into the top compartment of a Boyden chamber (Collaborative Biomedical Products, Bedford, Md.). This chamber consists of two compartments separated by a polycarbonate membrane filter (9 mm in diameter, with 3 μm pores) precoated on its upper surface with fibronectin. Fibronectin was employed to simulate the basal lamina.
The bottom compartment of the migration chamber contained 10% FCS-supplemented AIM-V; the higher concentration of FCS in the bottom chamber served as a directional gradient (77). After 5 h at 37° C., the content of the lower chamber was collected, and the number of migrated T lymphocytes was counted with the Coulter Counter Z1.

Entries after “also recorded” stand apart in the source; their conditions may differ. Where two headings read alike, the source gives them in different places.

`C=CC[C@H](C(=O)NO)[C@@H](CC(C)C)C(=O)N[C@@H](Cc1ccccc1)C(=O)NC` [BB-1101]: the “incidence and severity of EAE” value in experiment [1] is listed as “alleviate”.

With `CNC(=O)[C@H](Cc1c[nH]c2ccccc12)NC(=O)[C@@H](CC(=O)NO)CC(C)C` [GM6001], the “incidence and severity of EAE” value in experiment [1] was “alleviate”.

Regarding `CNC(=O)[C@@H](NC(=O)[C@@H](CC(=O)NO)CC(C)C)C(C)(C)C` [Ro31-9790], in experiment [1], the “incidence and severity of EAE” value is recorded as “alleviate”.

For the compound `c1cnc2c(c1)ccc1cccnc12` [phenanthroline], the “inhibition of MMP-9 enzymatic activity (size of gelatinase band in zymogram)” value (“inhibition of MMP-9 enzymatic activity” for short) in experiment [2] is listed as “inhibit MMP activity”.

With “L-glutamic acid polymer with L-alanine, L-lysine and L-tyrosine, acetate (salt) [Copolymer 1]”, the “binding to antigen presenting cells / MHC class II molecules” value in experiment [3] is “binds”. Moreover, the “capacity of lymphocytes to transmigrate across a fibronectin barrier” value in experiment [4] is on record as “significantly reduced”. In addition, the “inhibition of MMP-9 enzymatic activity” value in [2] is on record as “dose-dependently reduced; also recorded: inhibits”. Moreover, the “number or size of T lymphocyte aggregates after anti-CD3 treatment (proliferation)” value in experiment [5] is given as “does not decrease”. Moreover, the entries for the “total number of cells after 72 h” value in experiment [5] (5 μg/ml), in experiment [5] (25 μg/ml) and in experiment [5] (50 μg/ml) were 26±1 ×10^3, 26±2 ×10^3 and 22±1 ×10^3, respectively. Moreover, the “reducing effect on cytokine production” value in experiment [6] is “does not occur”. Besides, the “experimental GVHD” value in experiment [7] was “prevent”. Moreover, the “CXCR4 expression on U937 cells” value in experiment [8] is reported as “does not affect”. Besides, the “cytokine production in subsequent T lymphocyte - U937 interactions” value in experiment [9] is listed as “did not influence”. Moreover, the “production of MMP-9 by T lymphocytes compared to controls” value in experiment [10] is reported as “did not affect”. Also, in experiment [11], the “in vitro T-cell responses to MBP” value was “inhibited”. Besides, in experiment [12], the “monocyte production of MMP-9” value is “unaffected”. Also, the “migration rate of pre-treated T lymphocytes versus controls” value in [13] (10 ng/ml MCP-1 or MCP-3 in bottom chamber as chemotactic signal) was “did not differ”. The “migration of T lymphocytes across fibronectin barrier compared to controls” value in experiment [13] (25 μg/ml pretreatment for 1, 2 or 3 days) is reported as “did not inhibit; also recorded: did not affect”. In addition, in experiment [13] (3-day pretreatment, various concentrations 1 to 50 μg/ml), the “transmigration of activated T lymphocytes” value is “did not affect”.

As for “TIMP-1: positive control shown to inhibit MMP activity in the zymography assay”, the “inhibition of MMP-9 enzymatic activity” value in experiment [2] is “inhibit MMP activity”.

The values above are taken from patent publication US7033582B2 (Teva Pharmaceutical Industries, Ltd., priority 2000, dated 2006).
